The results in this text go back to patent publication US7378532B2, “Fused pyrazolyl compound” (Yung Shin Pharmaceutical Ind. Co., Ltd., priority 2004, dated 2008).

Series [1] has as its system Human lung cancer cells, NCI-H226. Nature of the series: Inhibition of cancer cell growth (sulforhodamine B assay). It is filed as cell-based. The following applies: human lung cancer cells NCI-H226, 48 hr incubation, eight concentrations, SRB stain, absorbance 515 nm. The method, then: Human lung cancer cells, NCI-H226, were placed in 96-well microtiter plates (5,000 cells/100 μl/well). The plates were incubated at 37° C. under 5% CO2 and 95% air and 100% relative humidity for 24 hr. Cells in one plate were fixed in situ with trichloroacetic acid (TCA) to measure the cell population.
Compound 1 was dissolved in dimethylsulfoxide (DMSO) to give a solution at 400-fold the desired final maximum test concentration and stored frozen. An aliquot of the frozen DMSO solution was thawed and diluted to twice the desired final maximum test concentration. Additional ½ log serial dilutions were made to provide a total of eight concentrations. 100 μl aliquots of these different dilutions were added to the microtiter wells, resulting in the required final drug concentrations. After Compound 1 was added, the plates were incubated at 37° C. under 5% CO2 and 95% air and 100% relative humidity for an additional 48 hr. The cells were fixed in situ by slow addition of 50 μl of cold 50% (w/v) TCA and incubated at 4° C. for 60 minutes. The supernatant was removed, and the plates were gently washed twice with water and air-dried. […] The bound stain was subsequently solubilized with 10 mM trizma base, and absorbance was measured by an automated plate reader at the wavelength of 515 nm.
(In general: The SRB assay estimates cell density from bound dye.)

For the compound `O=C(O)CCC(=O)OCc1ccc(-c2nn(Cc3ccccc3)c3ccccc23)o1` [Compound 1, succinic acid mono-[5-(1-benzyl-1H-indazol-3-yl)-furan-2-ylmethyl]ester], the “inhibition of growth of NCI-H226” value in series [1] is recorded as “effectively inhibited growth of NCI—H226”. The compound `Cc1cc2c(o1)c(-c1ccc(COC(=O)CCC(=O)O)o1)nn2Cc1ccccc1` [Compound 7, succinic acid mono-[5-(1-benzyl-5-methyl-1H-furo[3,2-C]pyrazol-3-yl)-furan-2-ylmethyl]ester] displayed a melting point of 126.3 to 129 °C.

`O=C(O)CCC(=O)OCc1ccc(-c2nn(-c3ccc(Br)cc3)c3ccccc23)o1` [Compound 12, succinic acid mono-[5-(1-(4-bromo-phenyl)-1H-indazol-3-yl)-furan-2-ylmethyl]ester] came in with a melting point of 111 to 112.7 °C.

Usually melting point stands for the temperature, or range, at which the solid turns liquid.
